Measurements from patent publication US8765775B2, “Anti-angiogenic compounds” (Universitaet Zuerich, priority 2008, dated 2014).
Where “and” joins values, the source holds several entries; their conditions need not be identical. Identical values can stand only once. Blank lines part the entries; values can stand above or below the molecule they belong to.

Legend:
[1] = molecular target: T1, myc-tagged full-length human EphB4 (Homo sapiens, UniProt P54760); test: Phospho-EphB4 ELISA of CHO cells (EphB4 autophosphorylation); type: cell-based; details: in CHO cells, at 20 μM
T1 construct: stably transfected with myc-tagged full-length human EphB4; expressed in transfected cells; host or cells: CHO-FRT cells (Flip-In System, Invitrogen)
T1 sequence (P54760 16-987): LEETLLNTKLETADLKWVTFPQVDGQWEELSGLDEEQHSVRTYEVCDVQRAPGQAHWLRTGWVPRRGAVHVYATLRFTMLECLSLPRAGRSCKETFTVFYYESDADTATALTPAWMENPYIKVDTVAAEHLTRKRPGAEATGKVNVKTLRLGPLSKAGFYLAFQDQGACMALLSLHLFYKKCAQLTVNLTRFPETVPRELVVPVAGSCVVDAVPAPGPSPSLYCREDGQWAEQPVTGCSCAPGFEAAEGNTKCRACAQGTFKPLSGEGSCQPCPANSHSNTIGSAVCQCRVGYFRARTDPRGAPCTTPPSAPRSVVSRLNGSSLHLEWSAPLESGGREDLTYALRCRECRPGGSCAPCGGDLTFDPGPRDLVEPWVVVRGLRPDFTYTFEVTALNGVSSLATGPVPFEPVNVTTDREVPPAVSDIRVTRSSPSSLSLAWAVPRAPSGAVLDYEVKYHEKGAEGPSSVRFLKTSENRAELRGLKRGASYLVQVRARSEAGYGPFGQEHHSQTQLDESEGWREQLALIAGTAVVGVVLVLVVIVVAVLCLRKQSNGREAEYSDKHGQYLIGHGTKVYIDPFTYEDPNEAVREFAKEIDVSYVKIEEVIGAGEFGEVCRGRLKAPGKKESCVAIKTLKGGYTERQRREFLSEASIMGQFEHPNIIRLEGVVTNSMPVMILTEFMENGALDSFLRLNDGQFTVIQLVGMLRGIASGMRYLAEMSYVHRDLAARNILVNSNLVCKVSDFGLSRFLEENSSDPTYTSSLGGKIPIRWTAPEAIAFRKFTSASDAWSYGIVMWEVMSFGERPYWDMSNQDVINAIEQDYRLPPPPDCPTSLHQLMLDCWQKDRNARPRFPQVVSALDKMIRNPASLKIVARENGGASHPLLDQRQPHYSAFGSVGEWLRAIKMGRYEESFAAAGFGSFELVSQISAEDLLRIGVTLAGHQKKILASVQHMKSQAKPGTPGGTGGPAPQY
Description: Phospho-EphB4 ELISA of CHO cells. The ELISA assay was performed as follows: Chinese hamster ovary (CHO)-FRT cells are stably transfected with myc-tagged full-length human EphB4 according to the Flip-In System protocol (Invitrogen, USA). […] Cells of this clone are preincubated with EphB4 inhibitors for 15 minutes and then stimulated with preclustered ephrinB2-Fc for 45 minutes at 37° C. Cells are lysed, transferred to a 96-well plate coated with anti-myc antibody and incubated overnight at 4° C. After incubation with anti-phosphotyrosine antibody, reactions are developed with BM Blue peroxydase substrate, and autophosphorylation of EphB4 is quantified by measuring absorption at 450 nm.

[2] = molecular target: T2, EphB4 (Homo sapiens, UniProt P54760); test: IC50 and % inhibition (Table 3); type: biochemical; details: for inhibition at 10 µM / inhibition at 20 µM: read-out: % inhibition at indicated concentration C; for IC50: Table 3, repeated determinations, read-out: IC50
T2 sequence (P54760 16-987): T1 sequence (P54760 16-987)

[3] = molecular target: T2, EphB4; test: Panvera Z'Lyte FRET-based enzymatic assay; details: for Inhibitory activity in the enzymatic assay (in words): Z'Lyte
Description: In vitro kinase activity was measured using the Panvera Z'Lyte Tyr2 kinase assay PV3191 (Invitrogen, USA), according to the manufacturer's instructions. […] The reaction is performed at room temperature for 1 hour.

SMILES: COCCCn1c(-c2ccccc2)cn2c3c(=O)[nH]c(=O)n(C)c3nc12 [Compound 6]
inhibition at 20 µM ([1]; read-out: Cell-based assay percent inhibition): 28% | % inhibition at indicated concentration C ([2]; C = 10 μM, 10 µM): 46% | inhibition at 10 µM ([2]; C = 10 μM): 49% | IC50 [3]: 50 µM | Inhibitory activity in the enzymatic assay (in words) [3]: mid-micromolar range

SMILES: COc1ccc(-n2c(-c3ccc(F)cc3)cn3c4c(=O)[nH]c(=O)n(C)c4nc23)c(OC)c1 [Compound 16]
% inhibition at indicated concentration C ([2]; C = 10 μM, 10 µM): 50% and 28%

SMILES: O=c1[nH]c(=O)n(Cc2ccccc2)c2nc3[nH]c(-c4ccccc4)cn3c12 [Compound 18, 1-Benzyl-7-phenyl-1H-imidazo[2,1-f]purine-2,4(3H,9H)-dione]
melting point: 393 to 395 °C

SMILES: Cn1c(-c2ccccc2)cn2c3c(=O)[nH]c(=O)n(Cc4ccccc4)c3nc12 [Compound 19, 1-Benzyl-8-methyl-7-phenyl-1H-imidazo[2,1-f]purine-2,4(3H,8H)-dione]
melting point: 306 to 308 °C

SMILES: COc1ccccc1-n1c(-c2ccccc2)cn2c3c(=O)[nH]c(=O)n(Cc4ccccc4)c3nc12 [Compound 25, 1-Benzyl-8-(2-methoxyphenyl)-7-phenyl-1H-imidazo[2,1-f]purine-2,4(3H,8H)-dione]
% inhibition at indicated concentration C ([2]; C = 10 μM, 10 µM): 11% | inhibition at 10 µM ([2]; C = 10 μM): 15% | melting point: 301 to 303 °C

SMILES: COc1ccccc1-n1c(-c2ccc(C#N)cc2)cn2c3c(=O)[nH]c(=O)n(C)c3nc12 [Compound 28, 8-(2-Methoxyphenyl)-1-methyl-7-p-cyanophenyl-1H-imidazo[2,1-f]purine-2,4(3H,8H)-dione]
% inhibition at indicated concentration C ([2]; C = 20 μM, 20 µM): 17% | inhibition at 20 µM ([2]; C = 20 μM): 13% | melting point: 303 to 305 °C

SMILES: COc1ccccc1-n1c(-c2ccc(F)cc2)cn2c3c(=O)[nH]c(=O)[nH]c3nc12 [Compound 30, 7-p-Fluorophenyl-8-(2-methoxyphenyl)-1H-imidazo[2,1-f]purine-2,4(3H,8H)-dione]
IC50 [2]: 4.6 µM and 6.2 µM

SMILES: COC(=O)Cn1c(=O)[nH]c(=O)c2c1nc1n(-c3ccccc3OC)c(-c3ccc(F)cc3)cn21 [Compound 32, 8-(2-Methoxyphenyl)-1-(methoxy-2-oxoethyl)-7-(p-Fluorophenyl)-1H-imidazo[2,1-f]purine-2,4(3H,8H)-dione]
IC50 [2]: 9.5 µM and 8.9 µM

SMILES: COc1ccccc1-n1c(-c2ccc(F)cc2)cn2c3c(=O)[nH]c(=O)n(CSC)c3nc12 [Compound 34, 8-(2-Methoxyphenyl)-1-(methylthiomethyl)-7-(p-Fluorophenyl)-1H-imidazo[2,1-f]purine-2,4(3H,8H)-dione]
IC50 [2]: 5.1 µM and 6.4 µM

SMILES: COc1ccccc1-n1c(-c2ccccc2)c(Br)n2c3c(=O)[nH]c(=O)n(C)c3nc12 [Compound 37, 6-Bromo-8-(2-methoxyphenyl)-1-methyl-7-phenyl-1H-imidazo[2,1-f]purine-2,4(3H,8H)-dione]
melting point: 274 to 276 °C

SMILES: CCCCn1c(-c2ccccc2)c(Br)n2c3c(=O)[nH]c(=O)n(C)c3nc12 [Compound 38, 6-Bromo-8-butyl-1-methyl-7-phenyl-1H-imidazo[2,1-f]purine-2,4(3H,8H)-dione]
melting point: 302 to 304 °C

Results, then the molecule that gave them:

Cell-based assay percent inhibition [1]: neg. | % inhibition at indicated concentration C ([2]; C = 10 μM, 10 µM): 58% and 54% | inhibition at 10 µM ([2]; C = 10 μM): 62% | IC50 [2]: 8 µM and 9 µM | IC50 [3]: 1.9 µM | Inhibitory activity in the enzymatic assay (in words) [3]: low-micromolar
SMILES: CCCn1c(-c2ccccc2)cn2c3c(=O)[nH]c(=O)n(C)c3nc12 [Compound 4]

IC50 ([3]; read-out: Enzymatic assays IC50 Z′Lyte, FRET-based, 10 μM ATP, 1% DMSO, room temperature 1 hour): 76 µM
SMILES: CC1(C)Cc2c(sc(NC(=O)Nc3ccccc3)c2C(N)=O)CO1 [Compound 9, reference compound]

% inhibition at indicated concentration C ([2]; C = 10 μM, 10 µM): 62% | inhibition at 10 µM ([2]; C = 10 μM): 72%
SMILES: COc1ccc(OC)c(-n2c(-c3ccc(F)cc3)cn3c4c(=O)[nH]c(=O)n(C)c4nc23)c1 [Compound 17]

melting point: 288 to 290 °C
SMILES: CNc1ccc(-c2cn3c4c(=O)[nH]c(=O)n(Cc5ccccc5)c4nc3n2C)cc1 [Compound 20, 1-Benzyl-8-methyl-7-p-methylaminophenyl-1H-imidazo[2,1-f]purine-2,4(3H,8H)-dione]

melting point: 250 to 252 °C
SMILES: O=c1[nH]c(=O)n(Cc2ccccc2)c2nc3n(-c4ccccc4)c(-c4ccc(F)cc4)cn3c12 [Compound 21, 1-Benzyl-7-p-fluorophenyl-8-phenyl-1H-imidazo[2,1-f]purine-2,4(3H,8H)-dione]

melting point: 251 to 253 °C
SMILES: COc1ccccc1-n1c(-c2ccc(F)cc2)cn2c3c(=O)[nH]c(=O)n(Cc4ccccc4)c3nc12 [Compound 22, 1-Benzyl-7-p-fluorophenyl-8-(2-methoxyphenyl)-1H-imidazo[2,1-f]purine-2,4(3H,8H)-dione]

melting point: 323 to 325 °C
SMILES: COc1ccccc1-n1c(-c2ccc([N+](=O)[O-])cc2)cn2c3c(=O)[nH]c(=O)n(C)c3nc12 [Compound 27, 8-(2-Methoxyphenyl)-1-methyl-7-p-nitrophenyl-1H-imidazo[2,1-f]purine-2,4(3H,8H)-dione]

% inhibition at indicated concentration C ([2]; C = 20 μM, 20 µM): 50% and 62% and 37% and 34% | melting point: 205 to 207 °C
SMILES: Cn1c(=O)[nH]c(=O)c2c1nc1n(CCCCO)c(-c3ccc(NCCCCO)cc3)cn21 [Compound 29]

IC50 [2]: 7.9 µM and 7.1 µM
SMILES: COc1ccccc1-n1c(-c2ccc(F)cc2)cn2c3c(=O)[nH]c(=O)n(CS(C)(=O)=O)c3nc12 [Compound 35, 8-(2-Methoxyphenyl)-1-(methylsulfonylmethyl)-7-(p-Fluorophenyl)-1H-imidazo[2,1-f]purine-2,4(3H,8H)-dione]

% inhibition at indicated concentration C ([2]; C = 10 μM, 10 µM): 10% and 4% | melting point: 276 to 278 °C
SMILES: O=c1[nH]c(=O)n(Cc2ccccc2)c2nc3n(-c4ccccc4)c(-c4ccc(F)cc4)c(Br)n3c12 [Compound 36, 1-Benzyl-6-bromo-7-p-fluorophenyl-8-phenyl-1H-imidazo[2,1-f]purine-2,4(3H,8H)-dione]

% inhibition at indicated concentration C ([2]; C = 20 μM, 20 µM): 30% | inhibition at 20 µM ([2]; C = 20 μM): 21%
SMILES: COc1ccccc1-n1c(-c2ccccc2)c(C#N)n2c3c(=O)[nH]c(=O)n(C)c3nc12 [Compound 41, 6-Cyano-8-(2-methoxyphenyl)-1-methyl-7-phenyl-1H-imidazo[2,1-f]purine-2,4(3H,8H)-dione]

% inhibition at indicated concentration C ([2]; C = 20 μM, 20 µM): 23% and 19% and 13% | inhibition at 20 µM ([2]; C = 20 μM): 12%
SMILES: COc1ccccc1-n1c(-c2ccc(C(=O)O)cc2)cn2c3c(=O)[nH]c(=O)n(C)c3nc12 [Compound 44, 8-(2-Methoxyphenyl)-1-methyl-7-p-carboxyphenyl-1H-imidazo[2,1-f]purine-2,4(3H,8H)-dione]
